Test results from article PMC11790914, “Chemogenomics for steroid hormone receptors (NR3)” (Communications Chemistry, 2025).
“And” between values parts separate entries of the source, which are not always exact repeats. Identical values can stand only once. Like-named read-outs stand apart in the source and are kept apart here.

What was measured:
HEK293T cells [1] = assay: Cytotoxicity: metabolic activity (WST-8 / CCK-8 assay); conditions: 1 µM; HEK293T, 24 h; WST-8; normalized to 0.1% DMSO; single replicates
[2] = system: ATF6 activity in Hela ATF6 reporter cells; assay: Endoplasmic reticulum stress assay (ATF6 Renilla luciferase reporter, tunicamycin); assay type: cell-based; conditions: for activity at 1 µM: Homo sapiens, HeLa, single replicates n=1 to n=5, read-out: ER stress [rel. ATF6 activity]
Method in brief: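 ER stress was induced by 100 ng/mL tunicamycin added 4 h after compound (0.1% DMSO) to HeLa ATF6 reporter cells. After 18 h more, Renilla luciferase signal was read and expressed relative to DMSO control, n=5 biological replicates.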

GSK3B = target: T1, GSK3B (Homo sapiens, UniProt P49841); assay: Liability panel screening by DSF: GSK3B; assay type: binding; conditions: read-out: Mean ΔTM GSK3B
T1 construct: made in house
T1 sequence (P49841 whole entry, species assumed): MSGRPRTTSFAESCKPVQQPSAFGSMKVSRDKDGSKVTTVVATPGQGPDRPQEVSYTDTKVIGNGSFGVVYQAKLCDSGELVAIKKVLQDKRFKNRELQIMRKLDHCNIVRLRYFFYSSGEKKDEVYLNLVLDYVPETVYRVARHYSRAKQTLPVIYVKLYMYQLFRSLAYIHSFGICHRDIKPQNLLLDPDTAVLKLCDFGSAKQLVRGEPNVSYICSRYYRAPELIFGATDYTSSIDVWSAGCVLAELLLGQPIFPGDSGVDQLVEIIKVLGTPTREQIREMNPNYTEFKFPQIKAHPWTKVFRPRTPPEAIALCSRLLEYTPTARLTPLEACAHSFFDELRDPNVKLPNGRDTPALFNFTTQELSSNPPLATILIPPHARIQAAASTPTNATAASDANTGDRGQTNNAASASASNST

BRD4 = target: T2, BRD4 (Homo sapiens, UniProt O60885); assay: Liability panel screening by DSF: BRD4; assay type: binding; conditions: read-out: Mean ΔTM BRD4
T2 construct: This panel comprised ten highly ligandable kinases and bromodomains; made in house
Method in brief: (§1)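 Recombinant protein at 2 µM in 10 mM HEPES pH 7.5 with 500 mM NaCl was mixed with SYPRO Orange (1:1000) and heated at 3 °C/min up to 85 °C. Tm was taken as the Boltzmann-fit inflection point. Shifts are ∆Tm in K from technical duplicates.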

CSNK1D = target: T3, CSNK1D (Homo sapiens, UniProt P48730); assay: Liability panel screening by DSF: CSNK1D; assay type: binding; conditions: read-out: Mean ΔTM CSNK1D
T3 construct: made in house
T3 sequence (P48730 whole entry, species assumed): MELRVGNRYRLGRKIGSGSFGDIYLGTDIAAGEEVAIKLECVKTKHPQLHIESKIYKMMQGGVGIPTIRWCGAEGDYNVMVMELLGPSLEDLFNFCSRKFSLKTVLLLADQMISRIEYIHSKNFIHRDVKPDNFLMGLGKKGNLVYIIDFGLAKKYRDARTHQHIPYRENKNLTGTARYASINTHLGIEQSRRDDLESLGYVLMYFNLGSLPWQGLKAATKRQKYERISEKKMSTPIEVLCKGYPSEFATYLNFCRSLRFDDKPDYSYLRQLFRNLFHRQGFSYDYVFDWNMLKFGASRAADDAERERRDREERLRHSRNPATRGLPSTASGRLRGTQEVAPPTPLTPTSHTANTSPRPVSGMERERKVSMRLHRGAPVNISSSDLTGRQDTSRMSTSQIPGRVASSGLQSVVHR
Method in brief: as §1

BRPF1 = target: T4, BRPF1 (Homo sapiens, UniProt P55201); assay: Liability panel screening by DSF: BRPF1; assay type: binding; conditions: read-out: Mean ΔTM BRPF1
T4 construct: This panel comprised ten highly ligandable kinases and bromodomains; made in house
T4 sequence (P55201 628-732 limits assumed): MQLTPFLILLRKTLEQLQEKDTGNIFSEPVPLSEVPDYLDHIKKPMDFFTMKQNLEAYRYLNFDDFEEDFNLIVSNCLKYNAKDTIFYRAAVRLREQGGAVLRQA
Method in brief: as §1

HEK293T cells [3] = assay: Cytotoxicity: apoptosis induction (caspase-3/7 DEVD fluorogenic DNA dye); conditions: 1 µM; HEK293T, 24 h; apoptotic cell count normalized to 0.1% DMSO; single replicates
NR3A1 (ERα) = conditions: of estradiol; cited from earlier work
[4] = system: NF-κB activity in HEK293 NF-κB reporter cells; assay: NF-kB activity assay (GFP reporter, ionomycin/PMA); assay type: cell-based; conditions: for Mean NFκB response: n=3; for NF-κB activity (inflammatory response to ionomycin/PMA): HEK293 NF-κB reporter cells, compounds at recommended concentrations, imaged over 24 h, n = 3
Method in brief: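 Reporter readout: GFP-expressing cells normalized to confluence, imaged every 90 min across 24 h after ionomycin (100 ng/mL)/PMA (10 ng/mL) stimulation of HEK293 cells pre-treated 4 h with compound (0.1% DMSO); triplicate independent experiments.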

TRIM24 = target: T5, TRIM24 (Homo sapiens, UniProt O15164); assay: Liability panel screening by DSF: TRIM24; assay type: binding; conditions: read-out: Mean ΔTM TRIM24
T5 construct: This panel comprised ten highly ligandable kinases and bromodomains; made in house
T5 sequence (O15164 899-1004 limits assumed): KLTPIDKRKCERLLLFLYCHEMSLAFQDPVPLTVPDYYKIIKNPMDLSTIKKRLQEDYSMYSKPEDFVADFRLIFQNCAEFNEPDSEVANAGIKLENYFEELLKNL
Method in brief: as §1

FGFR3 = target: T6, FGFR3 (Homo sapiens, UniProt P22607); assay: Liability panel screening by DSF: FGFR3; assay type: binding; conditions: read-out: Mean ΔTM FGFR3
T6 construct: made in house
T6 sequence (P22607 23-806, species assumed): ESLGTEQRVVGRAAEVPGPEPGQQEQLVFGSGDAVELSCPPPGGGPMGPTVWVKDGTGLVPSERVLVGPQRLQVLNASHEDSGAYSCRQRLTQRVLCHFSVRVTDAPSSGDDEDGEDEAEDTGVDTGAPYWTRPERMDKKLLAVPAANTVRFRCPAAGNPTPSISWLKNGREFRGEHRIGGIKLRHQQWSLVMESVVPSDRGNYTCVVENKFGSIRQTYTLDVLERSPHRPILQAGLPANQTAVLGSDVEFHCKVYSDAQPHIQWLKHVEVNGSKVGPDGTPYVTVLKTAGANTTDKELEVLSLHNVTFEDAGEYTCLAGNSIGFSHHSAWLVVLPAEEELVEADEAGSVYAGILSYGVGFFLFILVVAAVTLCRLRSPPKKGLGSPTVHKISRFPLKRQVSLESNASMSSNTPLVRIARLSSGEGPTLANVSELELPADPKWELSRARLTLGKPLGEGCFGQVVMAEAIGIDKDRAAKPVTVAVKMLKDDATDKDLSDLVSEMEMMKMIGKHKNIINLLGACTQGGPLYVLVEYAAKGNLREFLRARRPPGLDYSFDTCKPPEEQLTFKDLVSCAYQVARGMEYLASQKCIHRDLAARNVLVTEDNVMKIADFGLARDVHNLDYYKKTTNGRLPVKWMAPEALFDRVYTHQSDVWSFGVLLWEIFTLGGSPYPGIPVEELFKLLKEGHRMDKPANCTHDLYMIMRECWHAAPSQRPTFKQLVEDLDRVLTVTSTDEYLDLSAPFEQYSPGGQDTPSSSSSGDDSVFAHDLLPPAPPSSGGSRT
Method in brief: as §1

HEK293T cells [5] = assay: Cytotoxicity: growth-rate (change in confluence over 24 h); conditions: 1 µM, normalized to 0.1% DMSO control, single replicates (n=1...)
CDK2 = target: T7, CDK2 (Homo sapiens, UniProt P24941); assay: Liability panel screening by DSF: CDK2; assay type: binding; conditions: read-out: Mean ΔTM CDK2
T7 construct: made in house
Method in brief: as §1

AURKA = target: T8, AURKA (Homo sapiens, UniProt O14965); assay: Liability panel screening by DSF: AURKA; assay type: binding; conditions: read-out: Mean ΔTM AURKA
T8 construct: made in house
T8 sequence (O14965 1-403): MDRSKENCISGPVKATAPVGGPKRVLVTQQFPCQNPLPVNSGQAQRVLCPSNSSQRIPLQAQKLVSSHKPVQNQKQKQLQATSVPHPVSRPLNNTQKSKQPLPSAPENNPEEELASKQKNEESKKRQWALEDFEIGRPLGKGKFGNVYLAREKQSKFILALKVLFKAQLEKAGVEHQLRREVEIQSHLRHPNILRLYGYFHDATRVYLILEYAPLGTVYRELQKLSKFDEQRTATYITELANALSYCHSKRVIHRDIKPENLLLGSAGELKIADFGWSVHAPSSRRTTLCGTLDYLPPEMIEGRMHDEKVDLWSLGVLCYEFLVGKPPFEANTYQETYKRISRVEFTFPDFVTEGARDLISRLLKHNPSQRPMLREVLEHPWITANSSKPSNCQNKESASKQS
Method in brief: as §1

HEK293T cells [6] = assay: Cytotoxicity: necrosis induction (red fluorescent dye for permeable plasma membranes); assay type: cell-based; conditions: 1 µM, 24 h, necrotic cell count normalized to 0.1% DMSO, single replicates;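 note: compounds applied in DMEM high glucose with 0.1% FCS and 0.1% DMSO, necrotic HEK293T cells counted by red staining of cells whose plasma membranes had become permeable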
ABL1 = target: T9, ABL1 (Homo sapiens, UniProt P00519); assay: Liability panel screening by DSF: ABL1; assay type: binding; conditions: read-out: Mean ΔTM ABL1
T9 construct: made in house
T9 sequence (P00519 whole entry, species assumed): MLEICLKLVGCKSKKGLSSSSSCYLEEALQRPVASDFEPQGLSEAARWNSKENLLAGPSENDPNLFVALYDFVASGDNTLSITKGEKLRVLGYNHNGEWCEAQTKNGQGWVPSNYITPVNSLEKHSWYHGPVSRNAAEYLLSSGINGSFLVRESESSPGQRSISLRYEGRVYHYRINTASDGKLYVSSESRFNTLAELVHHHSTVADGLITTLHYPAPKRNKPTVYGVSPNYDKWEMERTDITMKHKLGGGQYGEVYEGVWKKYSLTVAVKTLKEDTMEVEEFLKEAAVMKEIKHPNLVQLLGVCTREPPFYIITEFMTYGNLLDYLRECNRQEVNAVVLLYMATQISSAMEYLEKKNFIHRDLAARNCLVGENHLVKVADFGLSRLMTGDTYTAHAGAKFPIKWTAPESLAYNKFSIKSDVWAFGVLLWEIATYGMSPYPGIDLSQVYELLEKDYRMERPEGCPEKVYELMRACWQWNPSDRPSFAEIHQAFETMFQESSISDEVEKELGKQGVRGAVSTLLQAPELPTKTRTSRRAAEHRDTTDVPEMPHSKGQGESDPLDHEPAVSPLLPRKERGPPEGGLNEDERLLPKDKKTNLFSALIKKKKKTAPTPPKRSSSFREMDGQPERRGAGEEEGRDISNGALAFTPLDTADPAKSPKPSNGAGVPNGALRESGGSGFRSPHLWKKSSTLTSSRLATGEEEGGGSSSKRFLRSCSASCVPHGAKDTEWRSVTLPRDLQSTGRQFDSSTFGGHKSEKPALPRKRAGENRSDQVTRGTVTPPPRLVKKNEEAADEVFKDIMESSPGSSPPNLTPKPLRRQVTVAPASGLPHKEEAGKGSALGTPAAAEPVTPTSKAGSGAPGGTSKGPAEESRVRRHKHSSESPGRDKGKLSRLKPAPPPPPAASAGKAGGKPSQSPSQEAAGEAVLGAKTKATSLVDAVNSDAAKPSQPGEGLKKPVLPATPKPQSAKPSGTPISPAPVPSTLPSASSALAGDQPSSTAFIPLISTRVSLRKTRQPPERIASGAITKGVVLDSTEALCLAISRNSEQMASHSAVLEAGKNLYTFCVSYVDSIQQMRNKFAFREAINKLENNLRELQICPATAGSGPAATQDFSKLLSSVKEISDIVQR
Method in brief: as §1

MAPK1 = target: T10, MAPK1 (Homo sapiens, UniProt P28482); assay: Liability panel screening by DSF: MAPK1; assay type: binding; conditions: DSF, 20 µM, n=2; read-out: Mean ΔTM MAPK1
T10 construct: made in house
T10 sequence (P28482 whole entry, species assumed): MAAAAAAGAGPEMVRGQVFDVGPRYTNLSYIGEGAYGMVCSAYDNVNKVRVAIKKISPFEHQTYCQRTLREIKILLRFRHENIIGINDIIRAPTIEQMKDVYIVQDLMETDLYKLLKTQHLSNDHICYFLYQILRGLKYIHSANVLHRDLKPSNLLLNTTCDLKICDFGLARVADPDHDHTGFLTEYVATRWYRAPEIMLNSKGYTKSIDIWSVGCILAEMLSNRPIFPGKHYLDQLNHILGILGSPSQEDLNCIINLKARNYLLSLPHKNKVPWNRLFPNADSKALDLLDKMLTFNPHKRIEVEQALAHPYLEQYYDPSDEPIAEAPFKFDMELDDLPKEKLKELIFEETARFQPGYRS
Method in brief: as §1

NR3C4 (AR) = conditions: read-out: Potency [nM] IC50, NR3C4 (AR); cited from earlier work
Gal4-VP16 = assay type: cell-based; conditions: 1 µM; vs. DMSO ctrl; single replicates n=1-3

| SMILES | Metabolic activity [MA] (HEK293T cells [1]) | activity at 1 µM [2] [%] | Apoptosis induction [AI] (HEK293T cells [3]) | Mean NFκB response ([4]; 1 µM, 1,5 h) | Mean NFκB response ([4]; 1 µM, 4,5 h) | Mean NFκB response ([4]; 1 µM, 7,5 h) | Mean NFκB response ([4]; 1 µM, 10,5 h) | Mean NFκB response ([4]; 1 µM, 13,5 h) | Mean NFκB response ([4]; 1 µM, 16,6 h) | Mean NFκB response ([4]; 1 µM, 19,5 h) | Mean NFκB response ([4]; 1 µM, 22,5 h) | Mean NFκB response ([4]; 1 µM, 3 h) | Mean NFκB response ([4]; 1 µM, 6 h) | Mean NFκB response ([4]; 1 µM, 9 h) | Mean NFκB response ([4]; 1 µM, 12 h) | Mean NFκB response ([4]; 1 µM, 15 h) | Mean NFκB response ([4]; 1 µM, 18 h) | Mean NFκB response ([4]; 1 µM, 21 h) | Mean NFκB response ([4]; 1 µM, 24 h) | NF-κB activity (inflammatory response to ionomycin/PMA) [4] | further results |
| --- | --- | --- | --- | --- | --- | --- | --- | --- | --- | --- | --- | --- | --- | --- | --- | --- | --- | --- | --- | --- | --- |
| CCCc1c(-c2ccc(O)cc2)nn(-c2ccc(O)cc2)c1-c1ccc(O)cc1 [Propylpyrazoletriol] | 0.98 (2×) and 1.03 and 0.91 and 0.97 and 0.94 and 1.18 and 1.14 | 96 | 1.04 and 1.18 and 0.79 and 1.33 and 1.63 and 1.23 | 3210.54 GFP+-cells/confluence ∙ 1000 | 4272.75 GFP+-cells/confluence ∙ 1000 | 9949.66 GFP+-cells/confluence ∙ 1000 | 19765.59 GFP+-cells/confluence ∙ 1000 | 27110.00 GFP+-cells/confluence ∙ 1000 | 32836.67 GFP+-cells/confluence ∙ 1000 | 36663.33 GFP+-cells/confluence ∙ 1000 | 39666.67 GFP+-cells/confluence ∙ 1000 | 3501.92 GFP+-cells/confluence ∙ 1000 | 6059.91 GFP+-cells/confluence ∙ 1000 | 15582.73 GFP+-cells/confluence ∙ 1000 | 23751.78 GFP+-cells/confluence ∙ 1000 | 30496.67 GFP+-cells/confluence ∙ 1000 | 34710.00 GFP+-cells/confluence ∙ 1000 | 37963.33 GFP+-cells/confluence ∙ 1000 | 40840.00 GFP+-cells/confluence ∙ 1000 | no impact on NF-κB activity | ATF6 activity (tunicamycin-induced endoplasmic reticulum stress) ([2]; Hela ATF6 reporter cells, tunicamycin 100 ng/mL, 18 h, compounds at recommended concentrations, n = 5): failed to reduce ATF6 activity; ΔTm at 20 µM (GSK3B): 0.06 °C; ΔTm at 20 µM (BRD4): -2.55 °C; ΔTm at 20 µM (CSNK1D): 1.72 °C; ΔTm at 20 µM (BRPF1): -2.86 °C; rel. activity from literature, NR3A1 (ERα): % of estradiol (NR3A1 (ERα)): 120%; ΔTm at 20 µM (TRIM24): -3.23 °C; ΔTm at 20 µM (FGFR3): -0.78 °C; Growth rate [GR] (HEK293T cells [5]): 0.81 and 2.52 and 0.99 and 1.39 and 1.25 and 1.17 and 0.88 and 3.47 and 1.21 and 7.02; ΔTm at 20 µM (CDK2): -2.26 °C; ΔTm at 20 µM (AURKA): 0.0212 °C; Necrosis induction [NI] (HEK293T cells [6]): 1.15 and 0.83 and 0.85 and 0.82; ΔTm at 20 µM (ABL1): -0.07 °C |
| N#Cc1ccc([C@H]2CCCC[C@H]2O)cc1C(F)(F)F [PF-998425] | 1.03 and 0.98 (3×) and 1.06 and 0.99 and 1.07 and 1.00 | 87 | 1.04 and 1.14 and 1.23 and 0.96 and 0.64 and 1.74 | 2870.31 GFP+-cells/confluence ∙ 1000 | 3725.32 GFP+-cells/confluence ∙ 1000 | 8899.00 GFP+-cells/confluence ∙ 1000 | 17651.00 GFP+-cells/confluence ∙ 1000 | 24472.33 GFP+-cells/confluence ∙ 1000 | 29696.67 GFP+-cells/confluence ∙ 1000 | 33323.33 GFP+-cells/confluence ∙ 1000 | 35466.67 GFP+-cells/confluence ∙ 1000 | 3247.46 GFP+-cells/confluence ∙ 1000 | 5028.67 GFP+-cells/confluence ∙ 1000 | 13977.00 GFP+-cells/confluence ∙ 1000 | 20998.00 GFP+-cells/confluence ∙ 1000 | 27073.33 GFP+-cells/confluence ∙ 1000 | 31376.67 GFP+-cells/confluence ∙ 1000 | 34843.33 GFP+-cells/confluence ∙ 1000 | 36873.33 GFP+-cells/confluence ∙ 1000 | tended to enhance NF-κB activity | ΔTm at 20 µM (GSK3B; DSF, 20 µM, n=2): -0.43 °C; ΔTm at 20 µM (MAPK1): -0.24 °C; ΔTm at 20 µM (BRD4; DSF, 20 µM, n=2): -1.51 °C; ΔTm at 20 µM (CSNK1D; DSF, 20 µM, n=2): 0.3 °C; ΔTm at 20 µM (BRPF1; DSF, 20 µM, n=2): -0.66 °C; IC50 (NR3C4 (AR)): 43 ± 12 nM; ΔTm at 20 µM (TRIM24; DSF, 20 µM, n=2): -1.04 °C; ΔTm at 20 µM (FGFR3; DSF, 20 µM, n=2): -0.09 °C; Growth rate [GR] (HEK293T cells [5]): 0.92 and 1.38 and 1.07 and 1.15 and 0.96 and 0.86 and 0.80 and 0.57 and 1.49 and 3.80; VP16 control [fold reporter gene activity] (Gal4-VP16): 1.26 fold reporter gene activity and 1.19 fold reporter gene activity and 1.03 fold reporter gene activity; ΔTm at 20 µM (CDK2; DSF, 20 µM, n=2): 0.11 °C; ΔTm at 20 µM (AURKA; DSF, 20 µM, n=2): -1.09 °C; Necrosis induction [NI] (HEK293T cells [6]): 0.87 and 1.08 and 0.88 and 1.00; ΔTm at 20 µM (ABL1; DSF, 20 µM, n=2): 0.55 °C |
